From patent publication US10265132B2, “Antimicrobial elastomeric articles” (ALLEGIANCE CORPORATION, priority 2012, dated 2019) come the findings set out here.

For one assay, the system named is E. coli. Put plainly: Antimicrobial activity (log reduction) of coated gloves against E. coli, 5 minute exposure time. The procedure: (§1) Antimicrobial Activity: The antimicrobial activity of sample 1-1 was tested before and after aging against E. coli and MRSA with a 5 minute exposure time:
(§2) The coating composition and formulation fabrication remained the same as describe in Example 1. Sample 2-1 describes coated gloves that were stored in desiccated environments (described above in Example 1) before and after the application of the antimicrobial coating. Samples 2-2 and 2-3 represent coated gloves that were pre- and post-conditioned (using the technique described above in Example 1), respectively. Sample 2-4 describes coated gloves that were not desiccated before or after application of the antimicrobial coating. Samples 2-1 through 2-4 were tested before and after conditioning against E. coli and MRSA with a 5 minute exposure time.
The coating composition, formulation fabrication, and coating application method remained the same as described in Example 1, Sample 3-1 describes antimicrobial-coated gloves that were exposed to 23° C. with a relative humidity of 45%. Sample 3-2 describes antimicrobial-coated gloves that were exposed to 23° C. with a relative humidity of 55%. Sample 3-3 describes antimicrobial-coated gloves that were exposed to 23° C. with a relative humidity of 75%. All samples were tested after one and two weeks exposure to the temperature and humidity levels. Antimicrobial efficacy was recorded against E. coli after a 5 minute exposure time. […]
(§3) The formulation fabrication and coating application were the same as described in Example 1. […] These formulations were then applied to the gloves and the concentration of CHG needed on the coated glove in order to achieve at least 4 log efficacy was measured. The concentration of CHG was measured using UV-Visible spectroscopy with the assistance of a sodium hypobromite indicator. CHG was extracted from the glove using water and the unknown concentration was calculated versus a predetermined standard curve. The antimicrobial efficacy after an exposure time of 5 minutes was determined against E. coli and MRSA.

Assay [1] concerns broad spectrum of microbes. Kind of assay: Minimum concentration of CHG on coated glove needed for 4 log efficacy in 5 minutes. Particulars: 5 minutes exposure, E. coli and MRSA. The procedure:
The formulation fabrication and coating application were the same as described in Example 1. The concentration of the active component, CHG, was varied in the formulation. These formulations were then applied to the gloves and the concentration of CHG needed on the coated glove in order to achieve at least 4 log efficacy was measured. The concentration of CHG was measured using UV-Visible spectroscopy with the assistance of a sodium hypobromite indicator. CHG was extracted from the glove using water and the unknown concentration was calculated versus a predetermined standard curve. The antimicrobial efficacy after an exposure time of 5 minutes was determined against E. coli and MRSA.

The subject of a further assay is MRSA. Kind of assay: Antimicrobial activity (log reduction) of coated gloves against MRSA, 5 minute exposure time. Set-up: species or system methicillin-resistant Staphylococcus aureus. The protocol:
as §1, §2
The coating composition, formulation fabrication, and coating application method remained the same as described in Example 1. Antimicrobial gloves were packed into two packaging prototypes. The prototypes contained the antimicrobial coated gloves and the prototypes were subjected to outside conditions meant to simulated real world conditions experienced by medical glove products. Sample 4-1 is a control glove that was not packaged. Sample 4-2 is a packaging prototype comprised of Amcor aluminum foil laminate packaging containing antimicrobial-coated gloves and desiccant. […]
as §3

The mark [2] stands for this setting: CHG concentration on glove 2.09 μg/cm^2, 5 minutes exposure.
[3] abbreviates: CHG concentration on glove 7.63 μg/cm^2, 5 minutes exposure.
Where [4] appears, read: CHG concentration on glove 11.90 μg/cm^2, 5 minutes exposure.

Regarding `N=C(NCCCCCCNC(=N)NC(=N)Nc1ccc(Cl)cc1)NC(=N)Nc1ccc(Cl)cc1.O=C(O)[C@H](O)[C@@H](O)[C@H](O)[C@H](O)CO.O=C(O)[C@H](O)[C@@H](O)[C@H](O)[C@H](O)CO` [CHG, chlorhexidine digluconate], the “Log Reduction E. coli” value is 1.67 log in the assay with E. coli (setting [2]), 4.18 log in the assay with E. coli (setting [3]) and 4.72 log in the assay with E. coli (setting [4]). Further, the “CHG needed to offer 4 log antimicrobial efficacy” value in assay [1] was “about 7.6 μg”. The “Log Reduction MRSA” value in the assay on MRSA (setting [2]) is 3.08 log; in the assay on MRSA (setting [3]), 4.16 log; with MRSA (setting [4]), 4.06 log.
